Experimental data: PubChem BioAssay AID330 (DTP/NCI, 2004)
Toxic doses and inconclusive results are not listed. The calls were made as follows: active = survival T/C of 150% or more; inactive = T/C below 125% in these data.

Tested on: P388 leukemia ip, CD2F1 mice, survival T/C
Test: NCI In Vivo Anticancer Drug Screen. Data for tumor model P388 Leukemia (intraperitoneal) in CD2F1 (CDF1) mice
Settings: endpoint: median survival time, higher = longer survival
Procedure, shortened: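 Mice carrying the transplanted tumor received test compound or vehicle. Survival was recorded in each group, and the value is the treated-group measurement divided by that of the vehicle-treated control group.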

[1] = dose: 50.0 mg/kg/injection, schedule: Q01DX005 (ip), vehicle: saline with Tween-80
[2] = dose: 100.0 mg/kg/injection, schedule: Q01DX005 (ip), vehicle: saline with Tween-80
[3] = dose: 200.0 mg/kg/injection, schedule: Q01DX005 (ip), vehicle: saline with Tween-80
[4] = dose: 50.0 mg/kg/injection, schedule: Q01DX009 (ip), vehicle: Klucel (hydroxypropylcellulose) (HPC)
[5] = dose: 100.0 mg/kg/injection, schedule: Q01DX009 (ip), vehicle: Klucel (hydroxypropylcellulose) (HPC)

Measured: T/C

CCC(c1ccc(O)cc1)c1cc2c(cc1OCCO)OCO2 (centres undefined)
inactive: [1] 95 % of control | [2] 98 % of control | [3] 95 % of control

c1ccc(C2c3ccccc3C(c3ccccc3)(c3ccccc3)c3ccccc32)cc1
inactive: dose: 12.5 mg/kg/injection, schedule: Q01DX009 (ip), vehicle: Klucel (hydroxypropylcellulose) (HPC) 91 % of control | dose: 25.0 mg/kg/injection, schedule: Q01DX009 (ip), vehicle: Klucel (hydroxypropylcellulose) (HPC) 95 % of control | [4] 94 % of control | [5] 91 % of control

COC(=O)C=P(c1ccccc1)(c1ccccc1)c1ccccc1
inactive: dose: 25.0 mg/kg/injection, schedule: Q01DX009 (ip), vehicle: saline with Tween-80 104 % of control | dose: 50.0 mg/kg/injection, schedule: Q01DX009 (ip), vehicle: saline with Tween-80 100 % of control | dose: 100.0 mg/kg/injection, schedule: Q01DX009 (ip), vehicle: saline with Tween-80 91 % of control

COC(=O)c1ccc(SCCCN2CCOCC2)cc1
inactive: dose: 100.0 mg/kg/injection, schedule: Q01DX009 (ip), vehicle: saline 91 % of control | dose: 176.0 mg/kg/injection, schedule: Q04DX003 (ip), vehicle: saline 90 % of control | dose: 200.0 mg/kg/injection, schedule: Q01DX009 (ip), vehicle: saline 91 % of control | dose: 264.0 mg/kg/injection, schedule: Q04DX003 (ip), vehicle: saline 95 % of control | dose: 400.0 mg/kg/injection, schedule: Q01DX009 (ip), vehicle: saline 100 % of control | dose: 400.0 mg/kg/injection, schedule: Q04DX003 (ip), vehicle: saline 104 % of control

COC1OC(CO)C(O)C(O)C1NC(C)=O (centres undefined)
inactive: [1] 99 % of control | [2] 100 % of control | [3] 104 % of control

C/C(=N\O)c1ccc2c3c(ccc([N+](=O)[O-])c13)CC2
inactive: dose: 6.25 mg/kg/injection, schedule: Q01DX009 (ip), vehicle: suspension in saline 97 % of control | dose: 12.5 mg/kg/injection, schedule: Q01DX009 (ip), vehicle: suspension in saline 98 % of control | dose: 25.0 mg/kg/injection, schedule: Q01DX009 (ip), vehicle: suspension in saline 97 % of control | dose: 50.0 mg/kg/injection, schedule: Q01DX009 (ip), vehicle: suspension in saline 96 % of control

CC(C)C1=CC(=O)C2=C(CCC3C(C)(C(=O)O)CCC[C@]23C)C1=O (some centres undefined)
inactive: dose: 6.0 mg/kg/injection, schedule: Q01DX005 (ip), vehicle: Klucel (hydroxypropylcellulose) (HPC) 102 % of control | dose: 12.0 mg/kg/injection, schedule: Q01DX005 (ip), vehicle: Klucel (hydroxypropylcellulose) (HPC) 104 % of control | dose: 24.0 mg/kg/injection, schedule: Q01DX005 (ip), vehicle: Klucel (hydroxypropylcellulose) (HPC) 100 % of control | dose: 48.0 mg/kg/injection, schedule: Q01DX005 (ip), vehicle: Klucel (hydroxypropylcellulose) (HPC) 99 % of control

CCN(CC)/C(N)=N/O
inactive: dose: 2.5 mg/kg/injection, schedule: Q01DX009 (ip), vehicle: saline 95 % of control | dose: 5.0 mg/kg/injection, schedule: Q01DX009 (ip), vehicle: saline 104 % of control | dose: 10.0 mg/kg/injection, schedule: Q01DX009 (ip), vehicle: saline 102 % of control

O=C(NCc1ccco1)Nc1ccccc1[N+](=O)[O-]
inactive: dose: 50.0 mg/kg/injection, schedule: Q01DX005 (ip), vehicle: Klucel (hydroxypropylcellulose) (HPC) 96 % of control | dose: 100.0 mg/kg/injection, schedule: Q01DX005 (ip), vehicle: Klucel (hydroxypropylcellulose) (HPC) 95 % of control | dose: 200.0 mg/kg/injection, schedule: Q01DX005 (ip), vehicle: Klucel (hydroxypropylcellulose) (HPC) 95 % of control

CC(=O)Oc1c2ccccc2cc2ccccc12
inactive: [1] 112 % of control | [2] 96 % of control | [3] 89 % of control

CC(=O)OC1CC2C(=S)Nc3cc4c(cc3C(=O)N2C1)OCO4 (centres undefined)
inactive: [1] 92 % of control | [2] 91 % of control | [3] 89 % of control

O=C1Nc2ccccc2/C1=c1/sc2nc3ccccc3n2c1=O
inactive: dose: 200.0 mg/kg/injection, schedule: Q01DX001 (ip), vehicle: Klucel (hydroxypropylcellulose) (HPC) 89 % of control | dose: 400.0 mg/kg/injection, schedule: Q01DX001 (ip), vehicle: Klucel (hydroxypropylcellulose) (HPC) 89 % of control

CCOC(=O)C1=C(C)O/C(=C/c2ccccc2)C1=O
inactive: [4] 112 % of control | [5] 102 % of control | dose: 200.0 mg/kg/injection, schedule: Q01DX009 (ip), vehicle: Klucel (hydroxypropylcellulose) (HPC) 92 % of control
